# Data taken from PMC12475274, “Harnessing indole scaffolds to identify small-molecule IRE1α inhibitors modulating XBP1 mRNA splicing” (Nature Communications, 2025).
# Several values for one entry are separate records, joined by “and”; a condition that tells them apart may be missing. Equal entries are not always repeated. Entries after “also recorded” stand apart in the source; their conditions may differ.
# Assays:
# IRE1β (ERN2) = IRE1β (ERN2) (Homo sapiens, UniProt Q76MJ5); assay: LanthaScreen Eu kinase binding assay, IRE1β
# Method: LanthaScreen^TM Eu kinase binding assays were conducted by SelectScreen Kinase Profiling Services (Thermo Fisher) using Alexa Fluor conjugated kinase tracer, tagged kinase protein, and Eu-labeled anti-tag antibody. The binding of the tracer to the kinase will form the tracer-kinase complex, resulting in a high FRET signal with the Eu-labeled anti-tag antibody. Displacement of the tracer by a kinase inhibitor led to a decreased FRET signal. […] Buffer A containing 50 mM HEPES pH 7.5, 0.01% BRIJ-35, 10 mM MgCl2, and 1 mM EGTA was used.
# (§1) Kinase profiling was conducted by the SelectScreen Kinase Profiling Services (Thermo Fisher), using Z′-LYTE, Adapta, or LanthaScreen Eu Kinase Binding Assay for different kinases. The kinome phylogenetic tree was generated using the KinMap web portal.
# [1] = biological target: T1, wild-type full-length IRE1α in A549 cell lysate (Homo sapiens, UniProt O75460); assay: Thermal stability assay in A549 cell lysate; assay type: binding
# T1 construct: endogenous in cells; host or cells: A549 cells
# Method: A549 cells were harvested and seeded into 100 mm standard cell culture dishes at 80% confluency and cultured overnight. For the IA107 experiment, cells were gently washed with pre-cooled DPBS (Gibco,14190169) and lysed in RIPA buffer (Sigma, R0278) supplemented with phosphatase inhibitor (Roch, 4906845001) and 1× protease inhibitor cocktail (Sigma, P8340) for 30 min on ice. Cell lysates were centrifuged at 18,000 × g for 30 min at 4 °C and the supernatants were collected. The lysates were collected together and then aliquoted into 550 μL, the aliquots were incubated with different concentrations of IA107 with a final concentration of 0.1% DMSO for 30 min at room temperature. After the incubation, the sample was aliquoted into 10 PCR tubes, with 50 μL of lysate per tube and further heated at the indicated temperatures using a PCR cycler (25 °C for 1 min; indicated temperatures for 3 min; 16 °C, hold). After heating, the lysates were centrifuged at 18,000 × g for 30 min at 4 °C and the supernatants were collected and mixed with 4x protein loading buffer (Invitrogen, 2463559), heated at 95 °C for 10 min and separated by 4–20% MP stain-free gels (Bio-Rad, 4568095) then transferred to 0.45 μm PVDF membranes (Bio-Rad, 1704274) using the Trans-Blot Turbo Transfer System with the preprogrammed standard SD protocol (Bio-Rad). […]
# CDK8/cyclin C = CDK8/cyclin C (Homo sapiens, UniProt P49336); assay: Kinase profiling (SelectScreen), LanthaScreen Binding; details: IA107 at 5 μM
# Method: as §1
# RIPK2 = RIPK2 (Homo sapiens, UniProt O43353); assay: as above; details: IA107 at 5 μM
# Method: as §1
# STK32B (YANK2) = STK32B (YANK2) (Homo sapiens, UniProt Q9NY57); assay: as above; details: IA107 at 5 μM
# Method: as §1
# [2] = test system: XBP1 mRNA splicing in HT-29 cells; assay: RT-qPCR of ER stress-induced XBP1 mRNA splicing, HT-29; assay type: cell-based, human; details: HT-29 cells
# Method: (§2) A549 cells, HCT 116 cells, and HT-29 cells were collected and seeded in 6-well plates at a density of 5 × 10^5 cells per well and cultured overnight to attach, then treated with compound or DMSO for 2 h, then 0.5 μg/mL final concentration of tunicamycin (Tm, MP Biomedi, 0215002805) were added to induce the ER stress for 2 h. After treatment, total RNA was purified using an RNeasy mini kit (Qiagen, 74106). 500 ng of total RNA was used for reverse transcription using the High-Capacity cDNA Reverse Transcription Kits (Thermo Fisher, 4368814). cDNA was diluted 1: 5 using RNase-free water, and 1 μL CDNA was used for each qPCR reaction. The qPCR was performed using PowerUp™ SYBR™ Green Master Mix (Thermo Fisher, A25742) with 10 µL reaction volume using Bio-Rad CFX96 Real-Time PCR Detection System following the standard cycling mode (primer Tm ≥ 60 °C) on the manufacturer’s protocol. Data was analyzed using the 2^- ΔΔCt method. The primers used are listed in Supplementary Table S3. The inhibition % was calculated by using the equation: inhibition% = 100× (normalized Tm control - normalized of the sample)/(normalized Tm control - normalized DMSO control). Tm control: Cells treated with tunicamycin; DMSO control: Cells treated with DMSO only.
# [3] = test system: IRE1α transcription level in A549 cells; assay: RT-qPCR of IRE1α transcription level, A549; assay type: cell-based, human; details: A549 cells
# Method: as §2
# [4] = test system: IRE1α transcription level in HCT 116 cells; assay: RT-qPCR of IRE1α transcription level, HCT 116; assay type: cell-based, human; details: HCT 116 cells
# Method: as §2
# [5] = test system: IRE1α transcription level in HT-29 cells; assay: RT-qPCR of IRE1α transcription level, HT-29; assay type: cell-based, human; details: HT-29 cells
# Method: as §2
# IRE1α in A549 cells = biological target: T2, IRE1α in A549 cells (Homo sapiens, UniProt O75460); assay: Cellular thermal shift assay (CETSA) in A549 cells; assay type: cell-based
# T2 construct: endogenous in cells; host or cells: A549 cells
# Method: A549 cells were harvested and seeded into 100 mm standard cell culture dishes at 80% confluency and cultured overnight. For the IA107 experiment, cells were gently washed with pre-cooled DPBS (Gibco,14190169) and lysed in RIPA buffer (Sigma, R0278) supplemented with phosphatase inhibitor (Roch, 4906845001) and 1× protease inhibitor cocktail (Sigma, P8340) for 30 min on ice. Cell lysates were centrifuged at 18,000 × g for 30 min at 4 °C and the supernatants were collected. The lysates were collected together and then aliquoted into 550 μL, the aliquots were incubated with different concentrations of IA107 with a final concentration of 0.1% DMSO for 30 min at room temperature. […]
# For the IAPD1 experiment, A549 cells were treated with different concentrations of IAPD1 or DMSO for 4 h (final 0.1% DMSO). […] Lysates were collected by scraping and centrifuged at 18,000 × g for 30 min at 4 °C, and the protein concentrations of the supernatants were quantified using a BCA protein assay kit (Thermo Scientific, 23227) and diluted to 4 μg/μL, then cell lysate was aliquoted into 10 PCR tubes, with 50 μL of lysate per tube. […] After heating, samples were centrifuged at 18,000 × g for 30 min at 4 °C, and supernatants were collected and analyzed by western blot using the method and antibodies aforementioned.
# IRE1α = details: Fig. 1b; read-out: IC50 of reported IRE1α inhibitor; cited from earlier work
# IRE1β (ERN2), sequence (Q76MJ5 35-926): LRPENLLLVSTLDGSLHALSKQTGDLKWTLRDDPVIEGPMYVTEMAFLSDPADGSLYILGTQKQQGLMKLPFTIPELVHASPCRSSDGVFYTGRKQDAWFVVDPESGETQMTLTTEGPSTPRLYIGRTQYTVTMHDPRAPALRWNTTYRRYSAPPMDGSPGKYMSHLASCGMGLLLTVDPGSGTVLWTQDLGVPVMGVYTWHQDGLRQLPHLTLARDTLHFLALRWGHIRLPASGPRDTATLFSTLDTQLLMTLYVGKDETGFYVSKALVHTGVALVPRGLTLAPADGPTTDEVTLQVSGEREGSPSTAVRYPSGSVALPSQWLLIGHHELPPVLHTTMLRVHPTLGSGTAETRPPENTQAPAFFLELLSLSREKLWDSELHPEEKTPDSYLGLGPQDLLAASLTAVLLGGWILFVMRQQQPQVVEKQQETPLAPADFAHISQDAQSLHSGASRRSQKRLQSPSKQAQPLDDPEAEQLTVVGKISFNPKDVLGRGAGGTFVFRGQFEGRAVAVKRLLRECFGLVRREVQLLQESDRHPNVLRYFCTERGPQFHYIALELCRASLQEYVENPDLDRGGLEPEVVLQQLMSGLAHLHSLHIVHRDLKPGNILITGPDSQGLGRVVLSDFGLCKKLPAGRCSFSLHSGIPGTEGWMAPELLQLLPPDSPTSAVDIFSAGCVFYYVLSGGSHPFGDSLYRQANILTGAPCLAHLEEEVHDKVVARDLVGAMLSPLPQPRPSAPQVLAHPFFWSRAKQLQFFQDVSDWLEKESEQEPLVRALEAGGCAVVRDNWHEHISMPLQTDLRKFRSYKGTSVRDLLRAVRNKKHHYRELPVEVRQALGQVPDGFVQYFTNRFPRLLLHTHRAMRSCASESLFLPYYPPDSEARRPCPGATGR
# T1 sequence (O75460 19-977): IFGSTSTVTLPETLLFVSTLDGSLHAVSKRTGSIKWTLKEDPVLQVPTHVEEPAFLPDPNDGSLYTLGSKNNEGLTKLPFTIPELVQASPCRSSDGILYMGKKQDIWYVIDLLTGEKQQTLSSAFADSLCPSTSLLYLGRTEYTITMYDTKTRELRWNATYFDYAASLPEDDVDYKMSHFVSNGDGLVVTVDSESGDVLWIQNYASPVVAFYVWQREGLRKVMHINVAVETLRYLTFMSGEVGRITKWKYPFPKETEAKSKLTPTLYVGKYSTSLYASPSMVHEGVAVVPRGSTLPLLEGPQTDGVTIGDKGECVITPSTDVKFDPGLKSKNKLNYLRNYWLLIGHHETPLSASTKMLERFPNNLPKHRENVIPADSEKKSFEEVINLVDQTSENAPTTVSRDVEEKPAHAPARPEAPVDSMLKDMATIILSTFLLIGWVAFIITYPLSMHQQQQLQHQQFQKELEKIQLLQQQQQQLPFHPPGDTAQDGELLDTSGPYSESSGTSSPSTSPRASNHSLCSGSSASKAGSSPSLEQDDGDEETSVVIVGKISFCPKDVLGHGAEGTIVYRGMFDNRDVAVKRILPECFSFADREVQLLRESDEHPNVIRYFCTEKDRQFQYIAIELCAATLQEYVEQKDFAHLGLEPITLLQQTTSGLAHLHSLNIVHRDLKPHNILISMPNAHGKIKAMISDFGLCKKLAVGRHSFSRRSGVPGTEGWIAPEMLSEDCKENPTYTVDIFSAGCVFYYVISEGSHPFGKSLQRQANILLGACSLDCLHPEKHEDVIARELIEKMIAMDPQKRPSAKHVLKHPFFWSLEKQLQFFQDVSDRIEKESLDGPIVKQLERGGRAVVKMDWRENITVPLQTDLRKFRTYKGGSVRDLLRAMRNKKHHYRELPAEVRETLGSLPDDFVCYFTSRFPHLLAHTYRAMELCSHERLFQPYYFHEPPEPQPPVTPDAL
# T2 sequence (O75460 19-977): as above
# STK32B (YANK2), sequence (Q9NY57 whole entry): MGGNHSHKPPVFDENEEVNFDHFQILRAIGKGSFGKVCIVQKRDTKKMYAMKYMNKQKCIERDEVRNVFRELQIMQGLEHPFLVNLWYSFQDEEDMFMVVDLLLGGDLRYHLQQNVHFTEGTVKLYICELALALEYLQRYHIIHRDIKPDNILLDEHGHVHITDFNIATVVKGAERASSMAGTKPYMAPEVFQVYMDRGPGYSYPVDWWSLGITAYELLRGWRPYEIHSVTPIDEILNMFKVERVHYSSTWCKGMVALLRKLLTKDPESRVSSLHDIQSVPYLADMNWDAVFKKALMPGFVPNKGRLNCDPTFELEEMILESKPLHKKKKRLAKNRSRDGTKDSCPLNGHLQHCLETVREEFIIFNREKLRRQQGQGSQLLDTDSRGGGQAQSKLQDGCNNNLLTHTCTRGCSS
# RIPK2, sequence (O43353 whole entry): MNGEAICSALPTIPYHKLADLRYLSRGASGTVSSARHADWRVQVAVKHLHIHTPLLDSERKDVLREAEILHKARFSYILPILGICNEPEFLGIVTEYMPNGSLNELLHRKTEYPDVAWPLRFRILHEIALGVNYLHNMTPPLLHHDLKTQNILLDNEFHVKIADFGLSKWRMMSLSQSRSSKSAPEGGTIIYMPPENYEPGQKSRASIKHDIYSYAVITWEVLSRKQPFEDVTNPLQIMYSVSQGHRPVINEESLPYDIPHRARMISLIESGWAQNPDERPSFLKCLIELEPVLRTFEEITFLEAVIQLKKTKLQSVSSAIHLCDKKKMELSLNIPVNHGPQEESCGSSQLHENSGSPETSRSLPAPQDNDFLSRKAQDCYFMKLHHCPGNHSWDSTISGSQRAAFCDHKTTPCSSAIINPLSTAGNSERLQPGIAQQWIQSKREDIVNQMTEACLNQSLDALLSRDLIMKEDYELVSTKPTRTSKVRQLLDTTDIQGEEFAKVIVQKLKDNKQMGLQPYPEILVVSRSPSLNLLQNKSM
# CDK8/cyclin C, sequence (P49336 whole entry): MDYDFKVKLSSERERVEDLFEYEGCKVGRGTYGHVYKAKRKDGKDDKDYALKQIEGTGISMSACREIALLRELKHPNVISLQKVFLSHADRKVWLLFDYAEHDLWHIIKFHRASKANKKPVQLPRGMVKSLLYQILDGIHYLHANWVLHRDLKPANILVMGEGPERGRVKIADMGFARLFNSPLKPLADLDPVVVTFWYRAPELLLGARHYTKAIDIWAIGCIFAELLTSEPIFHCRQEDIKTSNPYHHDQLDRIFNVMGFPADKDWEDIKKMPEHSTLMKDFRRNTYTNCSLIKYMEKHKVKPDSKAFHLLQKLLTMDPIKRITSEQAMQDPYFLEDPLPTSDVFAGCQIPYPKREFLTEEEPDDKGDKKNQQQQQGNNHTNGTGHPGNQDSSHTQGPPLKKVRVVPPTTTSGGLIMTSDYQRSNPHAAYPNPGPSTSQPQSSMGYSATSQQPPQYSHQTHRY
# CDK8/cyclin C, sequence (P24863 whole entry partner): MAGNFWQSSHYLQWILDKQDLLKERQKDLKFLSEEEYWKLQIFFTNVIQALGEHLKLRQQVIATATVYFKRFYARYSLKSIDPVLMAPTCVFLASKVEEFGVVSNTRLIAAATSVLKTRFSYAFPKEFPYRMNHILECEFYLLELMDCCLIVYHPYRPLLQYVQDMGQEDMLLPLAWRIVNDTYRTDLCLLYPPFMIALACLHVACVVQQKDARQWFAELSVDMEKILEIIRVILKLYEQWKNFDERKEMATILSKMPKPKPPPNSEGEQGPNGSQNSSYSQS
compound,measurement,setting,value
Cc1c(CCC(=O)O)c2cc(Br)ccc2n1C(=O)c1ccccc1 [IA107],IRE1β Kinase Displacement(%),IRE1β (ERN2); 16700 μM as printed,87.04% and 84.54%
same,IC50,"IRE1β (ERN2); LanthaScreen Eu kinase binding assay, read-out: IRE1β (ERN2) kinase domain IC50",1440 nM
same,selectivity for IRE1α over IRE1β,IRE1β (ERN2); kinase binding IC50s,2 fold
same,inhibition at 5 µM,"IRE1β (ERN2); kinase profiling, ERN2, LanthaScreen Binding, IA107 at 5 μM",70%
same,thermal stabilization of full-length IRE1α in cell lysate,[1],concentration-dependently stabilized; also recorded: stabilized full-length IRE1α in cell lysate; also recorded: stabilized the full-length IRE1α in a concentration-dependent manner
same,inhibition at 5 µM,CDK8/cyclin C,35%
same,inhibition at 5 µM,RIPK2,0%
same,inhibition at 5 µM,STK32B (YANK2),2%
CCOC(=O)CCc1c(C)n(C(=O)c2ccccc2)c2ccc(Br)cc12 [IAPD1],inhibition of ER stress-induced XBP1 mRNA splicing,[2],inhibited
same,IC50,[2]; Homo sapiens,160 nM
same,effect on IRE1α transcription level,[3],minimal impacts; also recorded: not affected
same,effect on IRE1α transcription level,[4],did not influence; also recorded: no obvious impact
same,effect on IRE1α transcription level,[5],did not influence; also recorded: no obvious impact
same,treatment concentration below which stabilizing effects are negligible (CETSA),IRE1α in A549 cells; A549 cells,lower than 2.22 μM
same,"thermal stabilization of cellular IRE1α, CETSA",IRE1α in A549 cells; A549 cells treated 4 h,dose-dependently stabilized; also recorded: concentration-dependently stabilized; also recorded: concentration-dependently increased
Cc1ccc2c(NS(=O)(=O)c3ccccc3Cl)cccc2c1Oc1ncccc1-c1ccnc(N[C@H]2CCCNC2)n1 [KIRA8],IC50,IRE1α,6 nM
